From ChEMBL document CHEMBL1121815, “Chemically reactive estrogens: synthesis and estrogen receptor interactions of hexestrol ether derivatives and 4-substituted deoxyhexestrol derivatives bearing alkylating functions” (J Med Chem, 1981)

Experiments:
[1] = Half life was determined; assay type: ADME; details: rat
[2] = target: T1, Estrogen receptor (Ovis aries) (UniProt P49885+Q9TU15); test: Binding affinity against estrogen receptor in lamb uterine cytosol, relative to that of [3H]estradiol; assay type: protein assay
[3] = target: T1, Estrogen receptor (Ovis aries); test: Inactivation of lamb uterine estrogen receptor; assay type: protein assay; parameters: concentration or dose not given beside the values

Compound	half-life [1]	Binding affinity [2]	Inactivation [3]
CC[C@H](c1ccc(O)cc1)[C@@H](CC)c1ccc(OCC(O)CO)cc1 (stereo partly drawn)	–	6.9%	–
CC[C@H](c1ccc(O)c(CCCO)c1)[C@@H](CC)c1ccc(O)cc1	–	12%	–
CC[C@H](c1ccc(O)cc1)[C@@H](CC)c1ccc(N=[N+]=[N-])cc1	–	5.7%	–
CC[C@H](c1ccc(O)cc1)[C@@H](CC)c1ccc(S(=O)(=O)N=[N+]=[N-])cc1	–	1.8%	–
CC[C@H](c1ccc(O)cc1)[C@@H](CC)c1ccc(OCC(O)CBr)cc1 (stereo partly drawn)	30 min	3.2%	36%
CC[C@H](c1ccc(O)cc1)[C@@H](CC)c1ccc(S(=O)(=O)F)cc1	60 min	0.33%	24%
C=CCc1cc([C@@H](CC)[C@@H](CC)c2ccc(O)cc2)ccc1O	–	54%	–
CC[C@H](c1ccc(O)cc1)[C@@H](CC)c1ccc(OCC2CO2)cc1 (stereo partly drawn)	240 min	7.4%	44%
CCOC(=O)COc1ccc([C@H](CC)[C@H](CC)c2ccc(O)cc2)cc1	–	2.2%	–
CC[C@H](c1ccc(O)cc1)[C@@H](CC)c1ccc(OCC(O)CCl)cc1 (stereo partly drawn)	30 min	4%	24%
CC[C@H](c1ccc(O)cc1)[C@@H](CC)c1ccc(OCC(=O)CBr)cc1	< 30 min	9.5%	24%
CC[C@H](c1ccc(O)cc1)[C@@H](CC)c1ccc(OCC(=O)C=[N+]=[N-])cc1	–	2%	–
C=CCOc1ccc([C@H](CC)[C@H](CC)c2ccc(O)cc2)cc1	–	5.4%	–
CC[C@H](c1ccc(O)cc1)[C@@H](CC)c1ccc(OCC(=O)CCl)cc1	15 min	10%	31%
CC[C@H](c1ccc(O)cc1)[C@@H](CC)c1ccc(OCC(C)O)cc1 (stereo partly drawn)	–	4.3%	–
CCOCc1ccc([C@H](CC)[C@H](CC)c2ccc(O)cc2)cc1	–	4.9%	–
CC[C@H](c1ccc(O)cc1)[C@@H](CC)c1ccc(OCCOCCCl)cc1	–	0.9%	–
CC[C@H](c1ccc(O)cc1)[C@@H](CC)c1ccc(OCCO)cc1	–	21%	–
CC[C@H](c1ccc(O)cc1)[C@@H](CC)c1ccc(OCC(=O)O)cc1	–	0.12%	–

Now from value to compound:

half-life [1]	Binding affinity [2]	Inactivation [3]	Compound
78 min	8%	63%	CC[C@H](c1ccc(O)cc1)[C@@H](CC)c1ccc(CCl)cc1
–	17%	–	CCC(c1ccc(O)cc1)C(CC)c1ccc(OC)cc1 (stereo not drawn)
150 min	9.3%	70%	CC[C@H](c1ccc(O)cc1)[C@@H](CC)c1ccc(CBr)cc1
–	5.2%	–	CC[C@H](c1ccc(O)cc1)[C@@H](CC)c1ccc(C#N)cc1
–	11%	–	CC[C@H](c1ccc(O)cc1)[C@@H](CC)c1ccc(OCC(C)=O)cc1
30 min	0.44%	29%	CC[C@H](c1ccc(O)cc1)[C@@H](CC)c1ccc(C(=O)CCl)cc1
–	11%	–	CC[C@H](c1ccc(O)cc1)[C@@H](CC)c1ccc([N+](=O)[O-])cc1
–	40%	–	CC[C@H](c1ccc(O)cc1)[C@@H](CC)c1ccc(CO)cc1
–	19%	–	CC[C@H](c1ccc(O)cc1)[C@@H](CC)c1ccc(OC)cc1
–	1.8%	–	CC[C@H](c1ccc(O)cc1)[C@@H](CC)c1ccc(C(=O)O)cc1
–	4.1%	–	CC[C@H](c1ccc(O)cc1)[C@@H](CC)c1ccc(C(C)=O)cc1
< 30 min	1.1%	44%	CC[C@H](c1ccc(O)cc1)[C@@H](CC)c1ccc(C(=O)CBr)cc1
–	1.9%	–	CCOC(=N)c1ccc([C@H](CC)[C@H](CC)c2ccc(O)cc2)cc1
–	95%	–	CC[C@H](c1ccc(O)cc1)[C@@H](CC)c1ccc(N)cc1
